Measurements from patent US8475862B2, “Isothiocyanate preservatives and methods of their use” (The Procter & Gamble Company, priority 2003, dated 2013).

Experiments:
[1] = Moisture sensitivity test: isothiocyanate suspended in aqueous phosphate buffer, level measured by supercritical fluid chromatography; assay type: physicochemical; settings: white mustard essential oil suspended in aqueous phosphate buffer, pH about 3.6, about 20-23° C.
Procedure: As used herein, the term “moisture-sensitive” means that the isothiocyanate compound degrades in the presence of water. This degradation proceeds via a hydrolysis reaction, thereby leading to a reduction in level of the active isothiocyanate antimicrobial agent with time of storage in the presence of water. The method for determining moisture sensitivity is set forth in the Test Method section below. […]
These solutions are analyzed by supercritical fluid chromatography using the method described by Buskov, S. et al., “Supercritical fluid chromatography as a method of analysis for the determination of 4-hydroxybenzylglucosinolate degradation products,” Journal of Biochemical and Biophysical Methods, Vol. 43, pp 157-174 (2000) with the following modifications. […] The eluate is detected at 226 and 252 nm. […]
Moisture-sensitive isothiocyanate compounds are identified by suspending the isothiocyanate containing material in an aqueous phosphate buffer (pH of about 3.6) at room temperature. […] The extraction procedure is repeated after 24 hours and the level of residual isothiocyanate compound is measured by supercritical fluid chromatography. […]

[2] = tested on: Zygosaccharomyces bailii; assay: Ketchup spoilage challenge, plate counts of inoculated yeast; assay type: cell-based; settings: 22° C.; for regrowth of Z. bailii up to 336 hours: controls regrew around 96-108 hours
Procedure: (§1) Ketchup is an acid food with a pH of 3.5-3.8 that can be cold filled at 100±20° F. in PET bottles. The product is vulnerable during filling operation at the filler, susceptible for recontamination by adventitious spoilage microorganisms such as lactic acid bacteria (LAB) and acid and preservative tolerant yeasts (APRY).
(§2) All natural tomato ketchup products were made, a first sample with sodium (ANK) and a second sample with reduced sodium (ANK-RS). Each sample was split, and to each about 150 ppm and 300 ppm 4-hydroxybenzyl isothiocyanate was added. The samples were further split (for a total of eight samples) and inoculated as follows. Microorganisms were inoculated into four samples with a cocktail consisting of four separate lactic acid spoilage bacteria (250 CFU/gm) such as Lactobacillus fructivorans, L. fermentum, L. plantar and L. hilgardii. The four remaining samples were inoculated with Zygosaccharomyces bailii—(150-200 CFU/gm) previously isolated from a ketchup spoilage incident.
(§3) A summary of the samples is as follows: • 1: ANK—150 ppm 4HBITC—inoculated with four lactic acid bacteria • 2: ANK—150 ppm 4HBITC—inoculated with Z. bailii • 3: ANK—300 ppm 4HBITC—inoculated with four lactic acid bacteria • 4: ANK—300 ppm 4HBITC—inoculated with Z. bailii • 5: ANK-RS—150 ppm 4HBITC—inoculated with four lactic acid bacteria • 6: ANK-RS—150 ppm 4HBITC—inoculated with Z. bailii • 7: ANK-RS—300 ppm 4HBITC—inoculated with four lactic acid bacteria • 8: ANK-RS—300 ppm 4HBITC—inoculated with Z. bailii
The inoculated ketchup samples were stored at 22° C. […] The lactic acid bacteria and yeasts counts were performed as described in FDA BAM manual. The plate counts were then used to identify the degree of microbial kill or stasis in the inoculated product. […] At 150 ppm, the declining trend was gradual taking 336 hours to non-detectable level for both ANK and ANK-RS. Un-inoculated controls grew to level of 1000-1500 CFU/gm. In the Z. bailii inoculated samples, counts were reduced to non-detectable level at 96 hours, both with and without 4-hydroxybenzyl isothiocyanate. […]

[3] = tested on: four lactic acid spoilage bacteria (Lactobacillus fructivorans, L. fermentum, L. plantar and L. hilgardii); assay: Ketchup spoilage challenge, plate counts of inoculated lactic acid bacteria; assay type: cell-based; settings: 250 CFU/gm inoculum, stored at 22° C.
Procedure: as §1, §2, §3
The inoculated ketchup samples were stored at 22° C. […] The lactic acid bacteria and yeasts counts were performed as described in FDA BAM manual. The plate counts were then used to identify the degree of microbial kill or stasis in the inoculated product. […] At 150 ppm, the declining trend was gradual taking 336 hours to non-detectable level for both ANK and ANK-RS. Un-inoculated controls grew to level of 1000-1500 CFU/gm. In the Z. bailii inoculated samples, counts were reduced to non-detectable level at 96 hours, both with and without 4-hydroxybenzyl isothiocyanate. However, there was no regrowth in the samples with 4-hydroxybenzyl isothiocyanate up to 336 hours (150 and 300 ppm). Regrowth was noticed around 96-108 hours ending at 1×10^6 CFU/gm in control samples without 4-hydroxybenzyl isothiocyanate.

Oc1ccc(CN=C=S)cc1 [4-hydroxybenzyl isothiocyanate]
percent reduction in level of 4-hydroxybenzyl isothiocyanate after 24 hours [1]: about 72%
time at which Z. bailii counts reduced to non-detectable level ([2]; 150-200 CFU/gm inoculum, same result with and without 4-hydroxybenzyl isothiocyanate): 96 h
regrowth of Z. bailii up to 336 hours ([2]; 150 ppm): no regrowth
regrowth of Z. bailii up to 336 hours ([2]; 300 ppm): no regrowth
time until lactic acid bacteria counts reduced to non-detectable level ([3]; ANK ketchup, 150 ppm): 336 h
time until lactic acid bacteria counts reduced to non-detectable level ([3]; ANK ketchup, 300 ppm): ≤ 96 h
time until lactic acid bacteria counts reduced to non-detectable level ([3]; ANK-RS (reduced sodium) ketchup, 150 ppm): 336 h
time until lactic acid bacteria counts reduced to non-detectable level ([3]; ANK-RS (reduced sodium) ketchup, 300 ppm): ≤ 168 h
